Results from ChEMBL document CHEMBL5257073, “Development of [18F]Thiazolylacylaminopyridine-Based Glycogen synthase Kinase-3β ligands for positron emission tomography imaging” (Bioorg Med Chem Lett, 2023).

Experiments:
[1] = target: Glycogen synthase kinase-3 beta (Homo sapiens, UniProt P49841); assay: Inhibition of GSK-3beta (unknown origin)
[2] = Stability in mouse plasma assessed as parent compound remaining after 4 hrs by radio-HPLC analysis; assay type: ADME, cell-free; details: read-out: Stability
[3] = Stability in iv dosed KM mouse assessed as radioactivity of parent compound remaining in blood after 1 hrs by radio-HPLC analysis; assay type: ADME, organism-based; details: in vivo
[4] = Lipophilicity, logD of compound; assay type: physicochemical; details: octanol/water
[5] = Biodistribution in blood of iv dosed KM mouse assessed as radioactivity after 2 mins by imaging analysis; assay type: ADME, organism-based; details: in vivo
[6] = Biodistribution in brain of iv dosed KM mouse assessed as radioactivity after 2 mins by imaging analysis; assay type: ADME, organism-based; details: in vivo
[7] = Biodistribution in heart of iv dosed KM mouse assessed as radioactivity after 2 mins by imaging analysis; assay type: ADME, organism-based; details: in vivo
[8] = Biodistribution in liver of iv dosed KM mouse assessed as radioactivity after 2 mins by imaging analysis; assay type: ADME, organism-based; details: in vivo
[9] = Biodistribution in spleen of iv dosed KM mouse assessed as radioactivity after 2 mins by imaging analysis; assay type: ADME, organism-based; details: in vivo
[10] = Biodistribution in lung of iv dosed KM mouse assessed as radioactivity after 2 mins by imaging analysis; assay type: ADME, organism-based; details: in vivo
[11] = Biodistribution in kidney of iv dosed KM mouse assessed as radioactivity after 2 mins by imaging analysis; assay type: ADME, organism-based; details: in vivo
[12] = Biodistribution in pancreas of iv dosed KM mouse assessed as radioactivity after 2 mins by imaging analysis; assay type: ADME, organism-based; details: in vivo
[13] = Biodistribution in muscle of iv dosed KM mouse assessed as radioactivity after 2 mins by imaging analysis; assay type: ADME, organism-based, Muscle tissue; details: in vivo
[14] = Biodistribution in bone of iv dosed KM mouse assessed as radioactivity after 2 mins by imaging analysis; assay type: ADME, organism-based, Bone element; details: in vivo
[15] = Biodistribution in stomach of iv dosed KM mouse assessed as radioactivity after 2 mins by imaging analysis; assay type: ADME, organism-based; details: in vivo
[16] = Biodistribution in small intestine of iv dosed KM mouse assessed as radioactivity after 2 mins by imaging analysis; assay type: ADME, organism-based; details: in vivo
[17] = Biodistribution in blood of iv dosed KM mouse assessed as radioactivity after 10 mins by imaging analysis; assay type: ADME, organism-based; details: in vivo
[18] = Biodistribution in brain of iv dosed KM mouse assessed as radioactivity after 10 mins by imaging analysis; assay type: ADME, organism-based; details: in vivo
[19] = Biodistribution in heart of iv dosed KM mouse assessed as radioactivity after 10 mins by imaging analysis; assay type: ADME, organism-based; details: in vivo
[20] = Biodistribution in liver of iv dosed KM mouse assessed as radioactivity after 10 mins by imaging analysis; assay type: ADME, organism-based; details: in vivo
[21] = Biodistribution in spleen of iv dosed KM mouse assessed as radioactivity after 10 mins by imaging analysis; assay type: ADME, organism-based; details: in vivo
[22] = Biodistribution in lung of iv dosed KM mouse assessed as radioactivity after 10 mins by imaging analysis; assay type: ADME, organism-based; details: in vivo
[23] = Biodistribution in kidney of iv dosed KM mouse assessed as radioactivity after 10 mins by imaging analysis; assay type: ADME, organism-based; details: in vivo
[24] = Biodistribution in pancreas of iv dosed KM mouse assessed as radioactivity after 10 mins by imaging analysis; assay type: ADME, organism-based; details: in vivo
[25] = Biodistribution in muscle of iv dosed KM mouse assessed as radioactivity after 10 mins by imaging analysis; assay type: ADME, organism-based, Muscle tissue; details: in vivo
[26] = Biodistribution in bone of iv dosed KM mouse assessed as radioactivity after 10 mins by imaging analysis; assay type: ADME, organism-based, Bone element; details: in vivo
[27] = Biodistribution in stomach of iv dosed KM mouse assessed as radioactivity after 10 mins by imaging analysis; assay type: ADME, organism-based; details: in vivo
[28] = Biodistribution in small intestine of iv dosed KM mouse assessed as radioactivity after 10 mins by imaging analysis; assay type: ADME, organism-based; details: in vivo
[29] = Biodistribution in blood of iv dosed KM mouse assessed as radioactivity after 30 mins by imaging analysis; assay type: ADME, organism-based; details: in vivo, 0.5 h
[30] = Biodistribution in brain of iv dosed KM mouse assessed as radioactivity after 30 mins by imaging analysis; assay type: ADME, organism-based; details: in vivo, 0.5 h
[31] = Biodistribution in heart of iv dosed KM mouse assessed as radioactivity after 30 mins by imaging analysis; assay type: ADME, organism-based; details: in vivo, 0.5 h
[32] = Biodistribution in liver of iv dosed KM mouse assessed as radioactivity after 30 mins by imaging analysis; assay type: ADME, organism-based; details: in vivo, 0.5 h
[33] = Biodistribution in spleen of iv dosed KM mouse assessed as radioactivity after 30 mins by imaging analysis; assay type: ADME, organism-based; details: in vivo, 0.5 h
[34] = Biodistribution in lung of iv dosed KM mouse assessed as radioactivity after 30 mins by imaging analysis; assay type: ADME, organism-based; details: in vivo, 0.5 h
[35] = Biodistribution in kidney of iv dosed KM mouse assessed as radioactivity after 30 mins by imaging analysis; assay type: ADME, organism-based; details: in vivo, 0.5 h
[36] = Biodistribution in pancreas of iv dosed KM mouse assessed as radioactivity after 30 mins by imaging analysis; assay type: ADME, organism-based; details: in vivo, 0.5 h
[37] = Biodistribution in muscle of iv dosed KM mouse assessed as radioactivity after 30 mins by imaging analysis; assay type: ADME, organism-based, Muscle tissue; details: in vivo, 0.5 h
[38] = Biodistribution in bone of iv dosed KM mouse assessed as radioactivity after 30 mins by imaging analysis; assay type: ADME, organism-based, Bone element; details: in vivo, 0.5 h
[39] = Biodistribution in stomach of iv dosed KM mouse assessed as radioactivity after 30 mins by imaging analysis; assay type: ADME, organism-based; details: in vivo, 0.5 h
[40] = Biodistribution in small intestine of iv dosed KM mouse assessed as radioactivity after 30 mins by imaging analysis; assay type: ADME, organism-based; details: in vivo, 0.5 h
[41] = Biodistribution in blood of iv dosed KM mouse assessed as radioactivity after 60 mins by imaging analysis; assay type: ADME, organism-based; details: in vivo, 1 h
[42] = Biodistribution in brain of iv dosed KM mouse assessed as radioactivity after 60 mins by imaging analysis; assay type: ADME, organism-based; details: in vivo, 1 h
[43] = Biodistribution in heart of iv dosed KM mouse assessed as radioactivity after 60 mins by imaging analysis; assay type: ADME, organism-based; details: in vivo, 1 h
[44] = Biodistribution in liver of iv dosed KM mouse assessed as radioactivity after 60 mins by imaging analysis; assay type: ADME, organism-based; details: in vivo, 1 h
[45] = Biodistribution in spleen of iv dosed KM mouse assessed as radioactivity after 60 mins by imaging analysis; assay type: ADME, organism-based; details: in vivo, 1 h
[46] = Biodistribution in lung of iv dosed KM mouse assessed as radioactivity after 60 mins by imaging analysis; assay type: ADME, organism-based; details: in vivo, 1 h
[47] = Biodistribution in kidney of iv dosed KM mouse assessed as radioactivity after 60 mins by imaging analysis; assay type: ADME, organism-based; details: in vivo, 1 h
[48] = Biodistribution in pancreas of iv dosed KM mouse assessed as radioactivity after 60 mins by imaging analysis; assay type: ADME, organism-based; details: in vivo, 1 h
[49] = Biodistribution in muscle of iv dosed KM mouse assessed as radioactivity after 60 mins by imaging analysis; assay type: ADME, organism-based, Muscle tissue; details: in vivo, 1 h
[50] = Biodistribution in bone of iv dosed KM mouse assessed as radioactivity after 60 mins by imaging analysis; assay type: ADME, organism-based, Bone element; details: in vivo, 1 h
[51] = Biodistribution in stomach of iv dosed KM mouse assessed as radioactivity after 60 mins by imaging analysis; assay type: ADME, organism-based; details: in vivo, 1 h
[52] = Biodistribution in small intestine of iv dosed KM mouse assessed as radioactivity after 60 mins by imaging analysis; assay type: ADME, organism-based; details: in vivo, 1 h

Sequence of Glycogen synthase kinase-3 beta (P49841 whole entry): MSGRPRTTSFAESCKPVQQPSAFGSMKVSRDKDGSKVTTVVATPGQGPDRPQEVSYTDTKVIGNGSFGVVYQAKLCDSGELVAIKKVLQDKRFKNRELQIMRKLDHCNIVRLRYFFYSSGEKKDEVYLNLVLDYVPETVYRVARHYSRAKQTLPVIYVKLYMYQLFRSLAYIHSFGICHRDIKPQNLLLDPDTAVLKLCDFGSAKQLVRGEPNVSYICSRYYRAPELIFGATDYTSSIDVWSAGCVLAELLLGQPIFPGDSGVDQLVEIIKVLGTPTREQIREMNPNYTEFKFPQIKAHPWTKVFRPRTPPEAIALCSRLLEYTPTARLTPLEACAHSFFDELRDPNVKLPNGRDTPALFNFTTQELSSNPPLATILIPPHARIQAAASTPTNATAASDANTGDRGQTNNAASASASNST

O=C(NCCF)c1sc(-c2ccnc(NC(=O)C3CC3)c2)nc1OCC1CC1
IC50 [1]: 18.2 nM

CNC(=O)c1sc(-c2ccnc(NC(=O)C3CC3)c2)nc1OCCF
IC50 [1]: 6 nM

CNC(=O)c1sc(-c2ccnc(NC(=O)C3CC3)c2)nc1OCC[18F]
remaining at 4 h [2]: > 95% | Stability [3]: 90% | logD [4]: 2.24 | Drug uptake [5]: 5.64 % ID/g | Drug uptake [6]: 1.68 % ID/g | Drug uptake [7]: 8.03 % ID/g | Drug uptake [8]: 22.28 % ID/g | Drug uptake [9]: 5.28 % ID/g | Drug uptake [10]: 7.28 % ID/g | Drug uptake [11]: 16.09 % ID/g | Drug uptake [12]: 7.32 % ID/g | Drug uptake [13]: 3.45 % ID/g | Drug uptake [14]: 2.83 % ID/g | Drug uptake [15]: 2.53 % ID/g | Drug uptake [16]: 9.74 % ID/g | Drug uptake [17]: 3.5 % ID/g | Drug uptake [18]: 0.77 % ID/g | Drug uptake [19]: 5.44 % ID/g | Drug uptake [20]: 32.93 % ID/g | Drug uptake [21]: 4.48 % ID/g | Drug uptake [22]: 4.5 % ID/g | Drug uptake [23]: 14.4 % ID/g | Drug uptake [24]: 5.07 % ID/g | Drug uptake [25]: 2.18 % ID/g | Drug uptake [26]: 2.42 % ID/g | Drug uptake [27]: 3.29 % ID/g | Drug uptake [28]: 11.16 % ID/g | Drug uptake [29]: 2.18 % ID/g | Drug uptake [30]: 0.42 % ID/g | Drug uptake [31]: 3.41 % ID/g | Drug uptake [32]: 23.75 % ID/g | Drug uptake [33]: 2.91 % ID/g | Drug uptake [34]: 2.87 % ID/g | Drug uptake [35]: 13.09 % ID/g | Drug uptake [36]: 3.05 % ID/g | Drug uptake [37]: 1.38 % ID/g | Drug uptake [38]: 2.05 % ID/g | Drug uptake [39]: 2.92 % ID/g | Drug uptake [40]: 24.4 % ID/g | Drug uptake [41]: 1.11 % ID/g | Drug uptake [42]: 0.31 % ID/g | Drug uptake [43]: 1.73 % ID/g | Drug uptake [44]: 15.27 % ID/g | Drug uptake [45]: 1.4 % ID/g | Drug uptake [46]: 1.54 % ID/g | Drug uptake [47]: 7.11 % ID/g | Drug uptake [48]: 1.76 % ID/g | Drug uptake [49]: 0.87 % ID/g | Drug uptake [50]: 2.91 % ID/g | Drug uptake [51]: 1.88 % ID/g | Drug uptake [52]: 31.31 % ID/g

CCOC(=O)c1sc(-c2ccnc(NC(=O)C3CC3)c2)nc1OCCF
IC50 [1]: 68.1 nM

CNC(=O)c1sc(-c2ccnc(NC(=O)C3CC3)c2)nc1OCCOCCF
IC50 [1]: 36.5 nM

CCOC(=O)c1sc(-c2ccnc(NC(=O)C3CC3)c2)nc1OCCOCCF
IC50 [1]: 422 nM

CN(C)C(=O)c1sc(-c2ccnc(NC(=O)C3CC3)c2)nc1OCCOCCF
IC50 [1]: 149 nM

CCOC(=O)c1sc(-c2ccnc(NC(=O)C3CC3)c2)nc1OCCOCCOCCF
IC50 [1]: 345 nM

CN(C)C(=O)c1sc(-c2ccnc(NC(=O)C3CC3)c2)nc1OCCOCCOCCF
IC50 [1]: 426 nM

O=C(Nc1cc(-c2nc(OCC3CC3)c(C(=O)N3CC(F)C3)s2)ccn1)C1CC1
IC50 [1]: 42.1 nM

CN(C)C(=O)c1sc(-c2ccnc(NC(=O)C3CC3)c2)nc1OCCF
IC50 [1]: 152 nM
